Measured values as given in patent publication US8835476B2, “Synthesis of novel antimicrobials” (priority 2005, dated 2014).
Where two headings read alike, the source gives them in different places.

Key:
Type in all cases: cell-based
B. cepacia ATCC 25416 = experiment: Broth microdilution MIC, ATCC strains; conditions: Burkholderia cepacia, ATCC25416; B. cepacia ATCC 25416; read-out: MIC (growth inhibition, microdilution method)
Method in brief: (§1)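 Tested per NCCLS M7-A6 broth microdilution with an inoculum of 5×10^5 CFU/ml and DMSO controls matching solvent levels. Panels were incubated 16 to 20 hours at 35° C. in ambient air, and the MIC was taken as the lowest concentration inhibiting visible growth.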

E. coli ATCC 25922 = experiment: Broth microdilution MIC, ATCC strains; conditions: Escherichia coli, ATCC25922, E. coli ATCC 25922; read-out: MIC (growth inhibition, microdilution method)
Method in brief: as §1

E. faecalis ATCC 29212 = experiment: Broth microdilution MIC, ATCC strains; conditions: for MIC: Enterococcus faecalis, read-out: MIC (growth inhibition, microdilution method)
Method in brief: as §1

E. faecium ATCC 35667 = experiment: Broth microdilution MIC, ATCC strains; conditions: Enterococcus faecium, ATCC35667, read-out: MIC (growth inhibition, microdilution method)
Method in brief: as §1

K. oxytoca ATCC 49131 = experiment: Broth microdilution MIC, ATCC strains; conditions: Klebsiella oxytoca, ATCC49131; K. oxytoca ATCC 49131; read-out: MIC (growth inhibition, microdilution method)
Method in brief: as §1

MRSA ATCC 33591 = experiment: Broth microdilution MIC, ATCC strains; conditions: Staphylococcus aureus; MRSA ATCC 33591; read-out: MIC (growth inhibition, microdilution method)
Method in brief: as §1

P. vulgaris ATCC 49132 = experiment: Broth microdilution MIC, ATCC strains; conditions: Proteus vulgaris, ATCC49132; P. vulgaris ATCC 49132; read-out: MIC (growth inhibition, microdilution method)
Method in brief: as §1

Pr. stuartii ATCC 33672 = experiment: Broth microdilution MIC, ATCC strains; conditions: Providencia stuartii, ATCC33672; Pr. stuartii ATCC 33672; read-out: MIC (growth inhibition, microdilution method)
Method in brief: as §1

[1] = test system: Ps. aeruginosa ATCC 27853; experiment: Broth microdilution MIC, ATCC strains; conditions: Pseudomonas aeruginosa, ATCC27853; Ps. aeruginosa ATCC 27853; read-out: MIC (growth inhibition, microdilution method)
Method in brief: as §1

[2] = test system: S. liquefaciens ATCC 27592; experiment: Broth microdilution MIC, ATCC strains; conditions: S. liquefaciens ATCC 27592; read-out: MIC (growth inhibition, microdilution method)
Method in brief: as §1

S. marcescens ATCC 8100 = experiment: Broth microdilution MIC, ATCC strains; conditions: Serratia marcescens, ATCC8100; S. marcescens ATCC 8100; read-out: MIC (growth inhibition, microdilution method)
Method in brief: as §1

[3] = test system: Ps. aeruginosa clinical isolates; experiment: Broth microdilution MIC, clinical isolate strains (NAUTICA); conditions: Table 4B; each table row is one clinical isolate; unit assumed
Method in brief: as §1

[4] = ATCC29212, E. faecalis ATCC 29212
[5] = ATCC29212, E. faecalis, ATCC number not given

Fc1ccc(-c2cc(-c3nnn[nH]3)c(-c3ccc(F)cc3)s2)cc1 [DNM-131, 5-(2,5-Bis(4-fluorophenyl)thiophen-3-yl)-1H-tetrazole]
32 µg/mL: MIC (E. faecalis ATCC 29212; [5])
>32 µg/mL: MIC (growth inhibition, microdilution method) (E. faecalis ATCC 29212; E. faecalis, ATCC number not given)
> 32 µg/mL: MIC (B. cepacia ATCC 25416) | MIC (E. coli ATCC 25922) | MIC (E. faecalis ATCC 29212; [4]) | MIC (E. faecium ATCC 35667) | MIC (K. oxytoca ATCC 49131) | MIC (MRSA ATCC 33591) | MIC (P. vulgaris ATCC 49132) | MIC (Pr. stuartii ATCC 33672) | MIC [1] | MIC [2] | MIC (S. marcescens ATCC 8100) | MIC, PS. AER [3]

Cn1nnc(-c2cc(-c3ccc(F)cc3)sc2-c2ccc(F)cc2)n1 [DNM-132, 5-(2,5-bis(4-fluorophenyl)thiophen-3-yl)-2-methyl-2H-tetrazole]
> 16 µg/mL: MIC (B. cepacia ATCC 25416) | MIC (E. coli ATCC 25922) | MIC (E. faecalis ATCC 29212; [4]) | MIC (E. faecalis ATCC 29212; [5]) | MIC (E. faecium ATCC 35667) | MIC (K. oxytoca ATCC 49131) | MIC (MRSA ATCC 33591) | MIC (P. vulgaris ATCC 49132) | MIC (Pr. stuartii ATCC 33672) | MIC [1] | MIC [2] | MIC (S. marcescens ATCC 8100) | MIC, PS. AER [3]

Cn1nnnc1-c1cc(-c2ccc(F)cc2)sc1-c1ccc(F)cc1 [DNM-133, 5-(2,5-Bis(4-fluorophenyl)thiophen-3-yl)-1-methyl-1H-tetrazole]
> 16 µg/mL: MIC (B. cepacia ATCC 25416) | MIC (E. coli ATCC 25922) | MIC (E. faecalis ATCC 29212; [4]) | MIC (E. faecalis ATCC 29212; [5]) | MIC (E. faecium ATCC 35667) | MIC (K. oxytoca ATCC 49131) | MIC (MRSA ATCC 33591) | MIC (P. vulgaris ATCC 49132) | MIC (Pr. stuartii ATCC 33672) | MIC [1] | MIC [2] | MIC (S. marcescens ATCC 8100) | MIC, PS. AER [3]

O=C(O)c1sc(-c2ccc(F)cc2)cc1-c1nnn[nH]1 [DNM-141, 5-(4-Fluoro-phenyl)-3-(1H-tetrazol-5-yl)-thiophene-2-carboxylic acid]
> 16 µg/mL: MIC (B. cepacia ATCC 25416) | MIC (E. coli ATCC 25922) | MIC (E. faecalis ATCC 29212; [4]) | MIC (E. faecalis ATCC 29212; [5]) | MIC (E. faecium ATCC 35667) | MIC (K. oxytoca ATCC 49131) | MIC (MRSA ATCC 33591) | MIC (P. vulgaris ATCC 49132) | MIC (Pr. stuartii ATCC 33672) | MIC [1] | MIC [2] | MIC (S. marcescens ATCC 8100) | MIC, PS. AER [3]

Cn1nnc(-c2cc(-c3ccc(F)cc3)sc2C(=O)O)n1 [DNM-142, 5-(4-Fluoro-phenyl)-3-(2-methyl-2H-tetrazol-5-yl)-thiophene-2-carboxylic acid]
> 16 µg/mL: MIC (B. cepacia ATCC 25416) | MIC (E. coli ATCC 25922) | MIC (E. faecalis ATCC 29212; [4]) | MIC (E. faecalis ATCC 29212; [5]) | MIC (E. faecium ATCC 35667) | MIC (K. oxytoca ATCC 49131) | MIC (MRSA ATCC 33591) | MIC (P. vulgaris ATCC 49132) | MIC (Pr. stuartii ATCC 33672) | MIC [1] | MIC [2] | MIC (S. marcescens ATCC 8100) | MIC, PS. AER [3]

Cn1nnnc1-c1cc(-c2ccc(F)cc2)sc1C(=O)O [DNM-143, 5-(4-Fluoro-phenyl)-3-(1-methyl-1H-tetrazol-5-yl)-thiophene-2-carboxylic acid]
> 8 µg/mL: MIC (B. cepacia ATCC 25416) | MIC (E. coli ATCC 25922) | MIC (E. faecalis ATCC 29212; [4]) | MIC (E. faecalis ATCC 29212; [5]) | MIC (E. faecium ATCC 35667) | MIC (K. oxytoca ATCC 49131) | MIC (MRSA ATCC 33591) | MIC (P. vulgaris ATCC 49132) | MIC (Pr. stuartii ATCC 33672) | MIC [1] | MIC [2] | MIC (S. marcescens ATCC 8100) | MIC, PS. AER [3]

COC(=O)c1sc(-c2ccc(F)cc2)cc1-c1nnn(C)n1 [DNM-144, 5-(4-fluoro-phenyl)-3-(2-methyl-2H-tetrazol-5-yl)-thiophene-2-carboxylic acid methyl ester]
> 8 µg/mL: MIC (B. cepacia ATCC 25416) | MIC (E. coli ATCC 25922) | MIC (E. faecalis ATCC 29212; [4]) | MIC (E. faecalis ATCC 29212; [5]) | MIC (E. faecium ATCC 35667) | MIC (K. oxytoca ATCC 49131) | MIC (MRSA ATCC 33591) | MIC (P. vulgaris ATCC 49132) | MIC (Pr. stuartii ATCC 33672) | MIC [1] | MIC [2] | MIC (S. marcescens ATCC 8100) | MIC, PS. AER [3]

COC(=O)c1sc(-c2ccc(F)cc2)cc1-c1nnnn1C [DNM-145, 5-(4-Fluoro-phenyl)-3-(1-methyl-1H-tetrazol-5-yl)-thiophene-2-carboxylic acid methyl ester]
> 4 µg/mL: MIC (B. cepacia ATCC 25416) | MIC (E. coli ATCC 25922) | MIC (E. faecalis ATCC 29212; [4]) | MIC (E. faecalis ATCC 29212; [5]) | MIC (E. faecium ATCC 35667) | MIC (K. oxytoca ATCC 49131) | MIC (MRSA ATCC 33591) | MIC (P. vulgaris ATCC 49132) | MIC (Pr. stuartii ATCC 33672) | MIC [1] | MIC [2] | MIC (S. marcescens ATCC 8100) | MIC, PS. AER [3]
